Earlier results, collected in patent US20170014380A1, “Vildagliptin Formulation Process Under Inert Gas Atmosphere” (Sanovell IIac Sanayi Ve Ticaret Anonim Sirketi, priority 2014, published 2017).

solubility in organic polar solvents (in organic polar solvents): soluble
solubility in water (in water): soluble
Compound: N#C[C@@H]1CCCN1C(=O)CN[C@@]12C[C@@H]3C[C@@H](CC(O)(C3)C1)C2 [Vildagliptin, (S)-{[(3-hydroxyadamantan-1-yl)amino]acetyl}pyrrolidine-2-carbonitril]
